Where a name gives a salt, the structure may show the parent alone. Read-outs that look alike come from different tables or passages of the source.
What was measured:
[1] = Pharmacokinetic Evaluation in Rats; assay type: in vivo; settings: rat, male SD rats, administered orally or intravenously, plasma up to 8 hours, LC/MS/MS; for bioavailability: oral, read-out: BA(%) (bioavailability); for clearance: read-out: CLtot (total clearance) (converted)
Protocol: Each compound was dissolved at a concentration of 0.5 mg/ml in PBS or in PBS containing 10% PEG. The compound was administered orally or intravenously to male SD rats (7 to 9 weeks old). Blood was collected from the tail vein at time points up to 8 hours after the administration, and blood plasma was collected by centrifugation from each obtained blood. The blood plasma was pretreated by using the solid-phase extraction method, and the concentration of the compound was analyzed with LC/MS/MS (ESI negative mode).
As the Comparative Compound, 2-[4-((3,5-dichlorobenzensulfonylamino)methyl)benzoylamino]-5-(4-(methyl-pyrimidin-2-ylamino)phenyl)pento-4-ene acid (XXI) described in WO 99/26923 was used.
[“BA” in Table 17 means bioavailability, and “CLtot” means total clearance.]

[2] = test system: leukotriene B4 production by neutrophils; experiment: Measurement of Inhibitory Effect on Inflammatory Mediator Production by Leukocytes (ionomycin-induced leukotriene B4 in neutrophils); assay type: cell-based; settings: 0.5 h, human neutrophil suspension, 37° C. 30 minutes, EIA
Protocol: A mixture of human peripheral blood and physiological saline containing 3% dextran was left to stand for 30 minutes and then the upper layer was recovered. The upper layer was overlaid on Histopaque 1077 (SIGMA), and the resultant was centrifuged at 1400 rpm for 30 minutes. The supernatant was removed by aspiration and a buffer was added to the precipitate to prepare a neutrophil suspension (4×10^5 cells/mL). To the neutrophil suspension, ionomycin was added and the mixture was incubated at 37° C. for 30 minutes, followed by quantification of leukotriene B4 by EIA (Amersham, Biotrak EIA system). Each test compound was added to the neutrophil suspension before adding ionomycin. In Table 19, the IC50 of each compound is shown.

DSS-induced colitis [3] = experiment: Dextran Sulfate Sodium (DSS)-induced Colitis Model of Mice (1); assay type: in vivo, Female BALB/c mice; settings: 3 w/v % DSS for 8 days, scored at day 8
Protocol: Female BALB/c mice (Charles River, Japan) of 7 to 9 weeks old were allowed to freely drink 3 w/v % dextran sulfate sodium (DSS) for 8 days to induce colitis. The non-induced (background) group was allowed to freely drink sterilized distilled water. The compound described in Example 28 was orally administered to the mice at a dose of 5 mg/kg, and the compounds described in Example 4, Example 22 and Example 78 were orally administered to the mice at a dose of 15 mg/kg every day. At day 8 from the beginning of the drinking, stool consistency was scored (0: normal stool, 2: loose stool, 4: diarrhea) by using the method described by Murthy et al (see, for example, Dig Dis Sci., 38, 1722 (1993)).

Jurkat cells = experiment: Measurement of Inhibitory Effect on Leukocyte Functions (adhesion of Jurkat cells to ligand-expressing cells or ligand-immobilized plate); assay type: cell-based; settings: Homo sapiens, 0.5 h, read-out: IC50 (adhesion of Jurkat cells)
Protocol: Jurkat cells which are a cell line originated from human acute T cell lymphoma were allowed to react with BCECF-AM at 37° C. for 20 minutes to fluorescently label the cells. The fluorescently labelled Jurkat cells were allowed to react with ligand-expressing cells or with a ligand-immobilized plate at 37° C. for 30 minutes. After removing non-adherent cells by washing, 1% NP40 was added to lyse the adherent cells, and fluorescence intensity was measured with Cytoflow 2300 (Millipore). From the obtained fluorescence intensity, the number of adherent cells was calculated. Each test compound was reacted with the Jurkat cells before the beginning of the adhesion reaction. In Table 18, the IC50 of each compound is shown.

DSS-induced colitis [4] = experiment: Dextran Sulfate Sodium (DSS)-induced Colitis Model of mice (2); assay type: in vivo, Female BALB/c mice; settings: orally 5 mg/kg every day from Day 27 to Day 31; DSS 5 to 7 days then water 5 days, repeated 3 times
Protocol: Female BALB/c mice (Charles River, Japan) of 7 to 9 weeks old were allowed to freely drink 3 w/v % dextran sulfate sodium (DSS) for 5 to 7 days, and then to freely drink sterilized distilled water for 5 days. The procedure was repeated 3 times to induce colitis. The non-induced (background) group was allowed to freely drink sterilized distilled water. The compounds described in Examples 81 and 84 were orally administered to the mice at a dose of 5 mg/kg, respectively, every day from Day 27 to Day 31 after from the beginning of the drinking, and stool consistency was scored (0: normal stool, 2: loose stool, 4: diarrhea) by using the method described by Murthy et al (see, for example, Dig Dis Sci., 38, 1722 (1993).

[5] = fluorescently labelled Jurkat cells, ligand-expressing cells or ligand-immobilized plate, 37° C. 30 minutes

| bioavailability [1] [%] | clearance [1] [mL/min/kg] | IC50 [2] [µM] | IC50 (Jurkat cells; [5]) [µM] | SMILES | further results |
| --- | --- | --- | --- | --- | --- |
| 1.7 | 21.4 |  |  | CN(c1ccc(/C=C/CC(NC(=O)c2ccc(CNS(=O)(=O)c3cc(Cl)cc(Cl)c3)cc2)C(=O)O)cc1)c1ncccn1 (stereo not shown) [Comparative Compound, 2-[4-((3,5-dichlorobenzensulfonylamino)methyl)benzoylamino]-5-(4-(methyl-pyrimidin-2-ylamino)phenyl)pento-4-ene acid, reference compound] |  |
| 55 | 10.1 | 52.3 | 0.247 | COC1(c2ccc(/C=C/CC(NC(=O)c3c(Cl)cccc3Cl)C(=O)O)cc2)CCOCC1 (stereo not shown) [Example 4, (E)-2-(2,6-Dichlorobenzamido)-5-[4-(4-methoxytetrahydropyran-4-yl)-phenyl]pent-4-enoic acid] | rate of amelioration (stool consistency score) (DSS-induced colitis [3]; orally 15 mg/kg every day): 44% |
| 68.5 | 19.8 | 5.63 |  | CCOC1(c2ccc(/C=C/CC(NC(=O)c3c(Cl)cccc3Cl)C(=O)O)cc2)CCOCC1 (stereo not shown) [Example 6, (E)-2-(2,6-Dichlorobenzamido)-5-[4-(4-ethoxytetrahydropyran-4-yl)-phenyl]pent-4-enoic acid] |  |
| 61.7 | 5.1 | 176 | 0.16 | CN(c1ccc(/C=C/CC(NC(=O)c2c(Cl)cccc2Cl)C(=O)O)cc1)c1ncccn1 (stereo not shown) [Example 22, (E)-2-(2,6-Dichlorobenzamido)-5-[4-(methyl-pyrimidin-2-ylamino)phenyl]pent-4-enoic acid] | rate of amelioration (stool consistency score) (DSS-induced colitis [3]; orally 15 mg/kg every day): 67% |
|  |  |  | 0.11 | CCCN(c1ccc(/C=C/CC(NC(=O)c2c(Cl)cccc2Cl)C(=O)O)cc1)c1ncccn1 (stereo not shown) [Example 57, (E)-2-(2,6-Dichlorobenzamido)-5-[4-(propyl-pyrimidin-2-ylamino)phenyl]pent-4-enoic acid] |  |
|  |  |  | 0.043 | O=C(NC(C/C=C/c1ccc(N(Cc2ccncc2)c2ncccn2)cc1)C(=O)O)c1c(Cl)cccc1Cl (stereo not shown) [Example 59, (E)-2-(2,6-Dichlorobenzamido)-5-[4-(pyridin-4-ylmethyl-pyrimidin-2-ylamino)phenyl]pent-4-enoic acid] |  |
|  |  |  | 0.033 | O=C(NC(C/C=C/c1ccc(N(Cc2ccccn2)c2ncccn2)cc1)C(=O)O)c1c(Cl)cccc1Cl (stereo not shown) [Example 61] |  |
|  |  | 30 | 0.28 | Cc1cccc(Cl)c1C(=O)NC(C/C=C/c1ccc(N(C)c2ncccn2)cc1)C(=O)O (stereo not shown) [Example 67, (E)-2-(2-Chloro-6-methylbenzamido)-5-[4-(methyl-pyrimidin-2-ylamino)phenyl]pent-4-enoic acid] |  |
|  |  |  | 0.054 | COC1(c2ccc(/C=C/C[C@H](NC(=O)c3c(Cl)cccc3Cl)C(=O)[O-])cc2)CCOCC1.[Na+] [Example 78, (S,E)-2-(2,6-Dichlorobenzamido)-5-[4-(4-methoxytetrahydropyran-4-yl)-phenyl]pent-4-enoic acid sodium salt] | rate of amelioration (stool consistency score) (DSS-induced colitis [3]; orally 15 mg/kg every day): 40% |

Further lines, the molecule ahead of its results:

| SMILES | bioavailability [1] [%] | clearance [1] [mL/min/kg] | IC50 [2] [µM] | IC50 (Jurkat cells; [5]) [µM] | further results |
| --- | --- | --- | --- | --- | --- |
| CCN(c1ccc(/C=C/CC(NC(=O)c2c(Cl)cccc2Cl)C(=O)O)cc1)c1ncccn1 (stereo not shown) [Example 24, (E)-2-(2,6-Dichlorobenzamido)-5-[4-(ethyl-pyrimidin-2-ylamino)phenyl]pent-4-enoic acid] | 42.3 | 12.6 |  | 0.22 |  |
| CC(C)N(c1ccc(/C=C/CC(NC(=O)c2c(Cl)cccc2Cl)C(=O)O)cc1)c1ncccn1 (stereo not shown) [Example 28, (E)-2-(2,6-Dichlorobenzamido)-5-[4-(isopropyl-pyrimidin-2-ylamino)phenyl]pent-4-enoic acid] | 80.6 | 14.9 | 7.4 | 0.056 | rate of amelioration (stool consistency score) (DSS-induced colitis [3]; orally 5 mg/kg every day): 71% |
| O=C(NC(C/C=C/c1ccc(N(Cc2ccccc2)c2ncccn2)cc1)C(=O)O)c1c(Cl)cccc1Cl (stereo not shown) [Example 33, (E)-5-[4-(Benzyl-pyrimidin-2-yl-amino)-phenyl]-2-(2,6-dichlorobenzamido)-pent-4-enoic acid sodium salt] |  |  | 16.3 |  |  |
| O=C(NC(C/C=C/c1ccc(N(c2ncccn2)C2CCOCC2)cc1)C(=O)O)c1c(Cl)cccc1Cl (stereo not shown) [Example 49, (E)-2-(2,6-Dichlorobenzamido)-5-[4-(pyrimidin-2-yl-(tetrahydro-pyran-4-yl)-amino)phenyl]pent-4-enoic acid sodium salt] |  |  |  | 0.079 |  |
| O=C(NC(C/C=C/c1ccc(N(CC2CC2)c2ncccn2)cc1)C(=O)O)c1c(Cl)cccc1Cl (stereo not shown) [Example 53, (E)-5-[4-(Cyclopropylmethyl-pyrimidin-2-ylamino)phenyl]-2-(2,6-dichlorobenzamido)pent-4-enoic acid sodium salt] |  |  |  |  | IC50 (Jurkat cells; Jurkat): 0.12 µM |
| CC(C)CN(c1ccc(/C=C/CC(NC(=O)c2c(Cl)cccc2Cl)C(=O)O)cc1)c1ncccn1 (stereo not shown) [Example 55, (E)-2-(2,6-Dichlorobenzamido)-5-[4-(isobutyl-pyrimidin-2-ylamino)phenyl]pent-4-enoic acid sodium salt] |  |  |  |  | IC50 (Jurkat cells; Jurkat): 0.42 µM |
| Cc1cccc(C)c1C(=O)NC(C/C=C/c1ccc(N(C)c2ncccn2)cc1)C(=O)O (stereo not shown) [Example 69, (E)-2-(2,6-Dimethylbenzamido)-5-[4-(methyl-pyrimidin-2-ylamino)phenyl]pent-4-enoic acid] |  |  |  | 0.53 |  |
| COC(=O)C(C/C=C/c1ccc(N(CCC#N)c2ncccn2)cc1)NC(=O)c1c(F)cccc1F (stereo not shown) [Example 70, (E)-5-[4-((2-Cyano-ethyl)-pyrimidin-2-yl-amino)-phenyl]-2-(2,6-difluorobenzamido)-pent-4-enoic acid methyl ester] | 63.4 | 8.87 |  |  |  |
| CN(c1ccc(/C=C/C[C@H](NC(=O)c2c(Cl)cccc2Cl)C(=O)[O-])cc1)c1ncccn1.[Na+] [Example 81, (S,E)-2-(2,6-Dichlorobenzamido)-5-[4-(methyl-pyrimidin-2-ylamino)phenyl]pent-4-enoic acid sodium salt] | 52.1 | 17 |  | 0.082 | rate of amelioration (stool consistency score) (DSS-induced colitis [4]): 68.8% |
| CC(C)N(c1ccc(/C=C/C[C@H](NC(=O)c2c(Cl)cccc2Cl)C(=O)[O-])cc1)c1ncccn1.[Na+] [Example 84, (S,E)-2-(2,6-Dichlorobenzamido)-5-[4-(isopropyl-pyrimidin-2-ylamino)phenyl]pent-4-enoic acid sodium salt] |  |  |  | 0.03 | rate of amelioration (stool consistency score) (DSS-induced colitis [4]): 82.4% |

Source: patent US7566724B2, “Glycine derivative and use thereof” (Toray Industries, Inc., priority 2004, dated 2009)
